{"source": "paper PMC9953224", "about": "“Pharmacokinetic Evaluation of New Drugs Using a Multi-Labelling Approach and PET Imaging: Application to a Drug Candidate with Potential Application in Neuromuscular Disorders” (Biomedicines, 2023)", "key": {"FKBP12/RyR interaction": {"biological_target": "T1, FKBP12/RyR interaction (Homo sapiens, UniProt P62942)", "T1 construct": "endogenous in cells; host or cells: immortalized human myoblasts differentiated into myotubes", "T1 sequence (P62942 2-108 limits assumed)": "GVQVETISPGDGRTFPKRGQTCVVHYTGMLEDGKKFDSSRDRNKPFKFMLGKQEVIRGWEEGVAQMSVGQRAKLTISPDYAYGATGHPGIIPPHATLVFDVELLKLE", "T1 sequence (P21817 whole entry partner)": "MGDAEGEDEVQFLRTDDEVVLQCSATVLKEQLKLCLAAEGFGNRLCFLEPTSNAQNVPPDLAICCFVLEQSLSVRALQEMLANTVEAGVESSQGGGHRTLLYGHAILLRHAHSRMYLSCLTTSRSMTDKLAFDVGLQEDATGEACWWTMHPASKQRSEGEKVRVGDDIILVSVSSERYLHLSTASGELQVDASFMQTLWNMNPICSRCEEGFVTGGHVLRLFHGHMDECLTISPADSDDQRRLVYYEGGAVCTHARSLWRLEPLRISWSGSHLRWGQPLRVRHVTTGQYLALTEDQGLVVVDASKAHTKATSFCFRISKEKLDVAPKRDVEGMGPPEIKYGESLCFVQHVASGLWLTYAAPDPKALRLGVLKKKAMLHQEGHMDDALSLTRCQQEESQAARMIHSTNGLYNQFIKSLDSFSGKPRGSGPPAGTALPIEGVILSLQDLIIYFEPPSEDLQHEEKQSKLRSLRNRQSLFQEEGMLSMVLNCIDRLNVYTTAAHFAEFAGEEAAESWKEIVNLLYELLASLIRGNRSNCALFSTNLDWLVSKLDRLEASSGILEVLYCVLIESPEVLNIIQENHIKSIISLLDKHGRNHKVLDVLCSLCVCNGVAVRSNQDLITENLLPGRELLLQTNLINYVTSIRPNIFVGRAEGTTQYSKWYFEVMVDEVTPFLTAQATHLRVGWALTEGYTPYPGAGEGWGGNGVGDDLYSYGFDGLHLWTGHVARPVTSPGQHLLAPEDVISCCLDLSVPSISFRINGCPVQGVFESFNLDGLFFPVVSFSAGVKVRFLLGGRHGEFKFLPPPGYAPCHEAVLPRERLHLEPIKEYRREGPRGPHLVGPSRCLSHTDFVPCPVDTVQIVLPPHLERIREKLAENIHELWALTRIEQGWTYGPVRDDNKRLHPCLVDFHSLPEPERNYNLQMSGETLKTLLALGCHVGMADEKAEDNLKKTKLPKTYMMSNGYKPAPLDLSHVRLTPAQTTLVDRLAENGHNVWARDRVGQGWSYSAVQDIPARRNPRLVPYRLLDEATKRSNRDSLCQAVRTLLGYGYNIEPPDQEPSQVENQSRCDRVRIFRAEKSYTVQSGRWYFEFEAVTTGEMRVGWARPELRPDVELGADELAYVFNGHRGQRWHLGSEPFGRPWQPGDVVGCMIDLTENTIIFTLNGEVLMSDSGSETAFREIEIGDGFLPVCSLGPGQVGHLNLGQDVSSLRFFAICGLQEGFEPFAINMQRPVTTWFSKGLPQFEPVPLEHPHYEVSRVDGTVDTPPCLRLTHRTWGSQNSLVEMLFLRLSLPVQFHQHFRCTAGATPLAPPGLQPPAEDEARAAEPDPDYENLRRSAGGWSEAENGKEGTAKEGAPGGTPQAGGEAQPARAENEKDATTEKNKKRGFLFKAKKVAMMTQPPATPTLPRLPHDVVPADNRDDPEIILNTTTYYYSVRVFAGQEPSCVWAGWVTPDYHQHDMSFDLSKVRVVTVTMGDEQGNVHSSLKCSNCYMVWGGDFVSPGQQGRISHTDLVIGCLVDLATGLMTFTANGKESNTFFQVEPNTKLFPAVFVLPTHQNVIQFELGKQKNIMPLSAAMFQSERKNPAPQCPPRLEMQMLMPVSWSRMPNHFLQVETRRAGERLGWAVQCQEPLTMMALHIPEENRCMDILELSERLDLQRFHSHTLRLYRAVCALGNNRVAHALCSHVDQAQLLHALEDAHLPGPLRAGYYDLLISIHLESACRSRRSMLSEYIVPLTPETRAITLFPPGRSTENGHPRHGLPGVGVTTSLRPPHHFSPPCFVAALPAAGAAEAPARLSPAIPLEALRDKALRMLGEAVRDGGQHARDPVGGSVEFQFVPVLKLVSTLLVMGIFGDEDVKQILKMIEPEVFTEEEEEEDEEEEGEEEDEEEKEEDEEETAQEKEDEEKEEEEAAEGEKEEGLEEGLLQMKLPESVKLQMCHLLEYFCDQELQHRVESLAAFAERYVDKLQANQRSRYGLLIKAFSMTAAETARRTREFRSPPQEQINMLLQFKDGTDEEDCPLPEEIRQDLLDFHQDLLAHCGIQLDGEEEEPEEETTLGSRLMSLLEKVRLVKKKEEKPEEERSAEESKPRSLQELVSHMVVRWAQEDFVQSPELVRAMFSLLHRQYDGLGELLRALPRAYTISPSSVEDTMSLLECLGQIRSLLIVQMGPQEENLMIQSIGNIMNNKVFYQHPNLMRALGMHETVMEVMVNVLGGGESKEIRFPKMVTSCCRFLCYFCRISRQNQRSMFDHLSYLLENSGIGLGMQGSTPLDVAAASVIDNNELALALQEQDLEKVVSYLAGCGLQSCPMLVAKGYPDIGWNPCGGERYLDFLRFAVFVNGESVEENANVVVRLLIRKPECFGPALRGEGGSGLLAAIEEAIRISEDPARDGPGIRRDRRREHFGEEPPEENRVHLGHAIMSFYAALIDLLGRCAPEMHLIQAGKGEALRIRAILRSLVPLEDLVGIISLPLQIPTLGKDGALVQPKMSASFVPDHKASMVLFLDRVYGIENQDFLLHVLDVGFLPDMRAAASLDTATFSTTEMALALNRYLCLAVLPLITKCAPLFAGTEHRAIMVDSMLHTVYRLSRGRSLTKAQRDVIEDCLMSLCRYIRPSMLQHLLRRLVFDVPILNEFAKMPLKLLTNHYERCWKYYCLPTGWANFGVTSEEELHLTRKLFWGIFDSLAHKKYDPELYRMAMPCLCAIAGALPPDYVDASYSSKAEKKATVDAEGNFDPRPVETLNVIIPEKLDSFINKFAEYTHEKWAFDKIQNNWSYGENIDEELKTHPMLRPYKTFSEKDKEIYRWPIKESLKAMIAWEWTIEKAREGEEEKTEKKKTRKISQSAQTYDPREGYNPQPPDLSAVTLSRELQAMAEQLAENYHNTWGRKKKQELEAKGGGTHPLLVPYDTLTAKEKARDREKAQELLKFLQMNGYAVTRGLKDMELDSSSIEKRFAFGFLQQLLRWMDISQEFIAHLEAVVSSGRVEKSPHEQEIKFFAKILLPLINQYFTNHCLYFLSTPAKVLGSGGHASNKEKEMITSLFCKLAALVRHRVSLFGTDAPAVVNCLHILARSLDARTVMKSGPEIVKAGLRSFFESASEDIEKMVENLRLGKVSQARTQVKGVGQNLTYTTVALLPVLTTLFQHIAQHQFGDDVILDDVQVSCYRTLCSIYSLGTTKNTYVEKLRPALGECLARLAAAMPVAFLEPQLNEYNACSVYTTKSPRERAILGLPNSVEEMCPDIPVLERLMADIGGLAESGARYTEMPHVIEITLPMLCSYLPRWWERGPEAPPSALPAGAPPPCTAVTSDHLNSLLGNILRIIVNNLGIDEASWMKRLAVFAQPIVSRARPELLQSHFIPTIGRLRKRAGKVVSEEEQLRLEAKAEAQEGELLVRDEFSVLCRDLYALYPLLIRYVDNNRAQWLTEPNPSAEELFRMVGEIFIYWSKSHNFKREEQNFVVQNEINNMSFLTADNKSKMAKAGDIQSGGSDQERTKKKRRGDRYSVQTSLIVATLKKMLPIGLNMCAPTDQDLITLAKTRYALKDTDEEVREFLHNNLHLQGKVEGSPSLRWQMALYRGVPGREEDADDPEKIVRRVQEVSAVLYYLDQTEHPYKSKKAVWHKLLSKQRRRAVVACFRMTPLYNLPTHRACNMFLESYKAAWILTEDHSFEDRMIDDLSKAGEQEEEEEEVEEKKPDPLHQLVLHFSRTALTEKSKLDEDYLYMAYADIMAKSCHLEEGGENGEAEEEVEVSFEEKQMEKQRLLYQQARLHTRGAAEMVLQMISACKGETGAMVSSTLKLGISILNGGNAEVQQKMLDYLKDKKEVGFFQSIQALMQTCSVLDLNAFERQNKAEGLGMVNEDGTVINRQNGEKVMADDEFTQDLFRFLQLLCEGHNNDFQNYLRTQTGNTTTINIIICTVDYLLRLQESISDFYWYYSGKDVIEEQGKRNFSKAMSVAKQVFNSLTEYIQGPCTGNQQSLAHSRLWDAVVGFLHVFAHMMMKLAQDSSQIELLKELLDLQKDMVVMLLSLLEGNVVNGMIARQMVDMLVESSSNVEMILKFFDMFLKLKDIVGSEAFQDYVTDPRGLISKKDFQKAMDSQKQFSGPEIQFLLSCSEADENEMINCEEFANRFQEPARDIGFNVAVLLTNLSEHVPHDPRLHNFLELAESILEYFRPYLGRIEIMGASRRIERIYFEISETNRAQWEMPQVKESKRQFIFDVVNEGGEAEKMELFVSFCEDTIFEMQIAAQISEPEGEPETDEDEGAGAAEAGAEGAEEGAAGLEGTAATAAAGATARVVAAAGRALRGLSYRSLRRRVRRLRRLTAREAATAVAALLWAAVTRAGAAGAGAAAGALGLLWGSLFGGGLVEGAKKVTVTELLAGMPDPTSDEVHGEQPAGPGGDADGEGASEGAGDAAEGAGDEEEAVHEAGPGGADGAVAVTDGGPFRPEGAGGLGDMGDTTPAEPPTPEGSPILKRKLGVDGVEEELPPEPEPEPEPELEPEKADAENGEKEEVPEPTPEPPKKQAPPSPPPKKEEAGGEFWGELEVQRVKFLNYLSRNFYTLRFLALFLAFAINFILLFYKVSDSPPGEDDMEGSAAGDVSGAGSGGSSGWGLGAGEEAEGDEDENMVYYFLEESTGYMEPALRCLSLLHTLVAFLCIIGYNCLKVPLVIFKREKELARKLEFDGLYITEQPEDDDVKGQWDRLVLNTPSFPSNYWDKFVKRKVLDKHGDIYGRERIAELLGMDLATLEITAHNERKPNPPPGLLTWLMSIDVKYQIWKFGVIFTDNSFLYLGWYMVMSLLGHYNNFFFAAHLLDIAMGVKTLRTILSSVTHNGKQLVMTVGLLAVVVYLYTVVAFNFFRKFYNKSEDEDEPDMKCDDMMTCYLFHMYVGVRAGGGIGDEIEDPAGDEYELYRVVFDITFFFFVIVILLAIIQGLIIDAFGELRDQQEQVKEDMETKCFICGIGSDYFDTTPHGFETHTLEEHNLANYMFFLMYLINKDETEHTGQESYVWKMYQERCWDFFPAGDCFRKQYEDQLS", "assay": "In situ proximity ligation assay (PLA) in human myotubes under nitro-oxidative stress", "assay_type": "cell-based", "details": "human myotubes challenged with peroxynitrite donor SIN1 (5 mM, 30 min)", "protocol": "In situ PLA was used for evaluation of FKBP12/RyR stability in human myotubes under nitro-oxidative stress, as previously described. Briefly, immortalized human myoblasts (Myology Institute, Paris, France) were differentiated into myotubes and nitro-oxidative stress was induced by addition of the peroxynitrite donor 3-morpholinosydnonimine (SIN1, 5 mM, SCBT, Heidelberg, Germany) for 30 min. Myotubes were fixed with 4% paraformaldehyde (Aname, Madrid, Spain) and incubated overnight with the following primary antibodies: anti-RyR mouse mAb (1:200, Thermo Scientific, Waltham, MA, USA), and anti-FKBP12 rabbit pAb (1:100, Novus Biologicals, Centennial, CO, USA). The Duolink in situ PLA Orange assay kit was used with corresponding conjugated secondary antibodies (Sigma). Samples were counterstained with FITC-conjugated Myosin Heavy Chain-CFS mAb (MyHC, 1:50, R&D, Minneapolis, MN, USA) and mounted with ProLong Gold antifade reagent (Life Technologies, Eugene, OR, USA). Image quantification was performed with ImageJ (NIH). For each image, the total number of spots was normalized to the MyHC area. At least 3 images per condition were analysed with an average of 8–9 myotubes per image. Statistical significance was determined using One-Way ANOVA followed by Dunett’s multiple comparisons test. p-values < 0.05 were considered statistically significant."}, "[1]": {"assay": "Pharmacokinetics from metabolite-corrected arterial plasma TACs after oral administration", "assay_type": "in vivo, Sprague Dawley Rats", "details": "for MRT / half-life: Sprague Dawley, rat, arterial plasma; for MRT: read-out: MRT mean residence time (converted); for half-life: read-out: t1/2 terminal half-life", "protocol": "(§1) Anaesthesia was induced with 5% isoflurane (IsoFlo®, Abbott Laboratories, Abbott Park, IL, USA) and maintained by 2% of isoflurane in 100% O2. During the experiment, rats were kept normothermic using a heating blanket (Homeothermic Blanket Control Unit; Bruker). The rat was positioned in supine position on an operating table and the two distal hind limbs were fixed forming an approximately 30° angle with the horizontal plane. The surgical region was scrubbed using Betadine, starting in the centre, and making a circular sweep outward. A skin incision was made in the femoral region. Soft tissue was dissected to expose the femoral neurovascular bundle, consisting of femoral vein, artery, and nerve. Fine tip forceps were placed between the artery, vein and nerve and were slowly opened to separate the vessels, exposing an approximately 1 cm length section of artery/vein. The vena profunda femoris was sutured to avoid retrograde bleeding via this vessel, and the sapheno-femoral junction was cauterized. A few millimetres from venatomy, a vascular clip was inserted in the direction of the catheter (to control the flow) and a suture was applied in the opposite direction (to avoid retrograde bleeding). The same operation was carried out both on the femoral vein and femoral artery. An appropriate syringe filled with 50 U/mL Heparin/physiologic saline solution was fixed at the terminus of the catheters and these were filled with heparinized saline solution. On the upper half of the vessel circumference, at a 45° angle, an incision was made and the catheter (fine bore polythene tubing: ID 0.58 mm, OD 0.98 mm) was inserted through the venotomy and advanced to the vascular clip. The vascular clip was then removed, and the catheter advanced distally towards the level of the inguinal ligament. The catheter was finally secured to the femoral vein/artery proximally and distally with 2 single knots using 4–0 braided silk suture. The catheters were connected to an in-house developed system composed by a peristaltic pump and gamma-radiation coincidence detector (Bioscan, B-FC-4100). The femoral artery catheter, the gamma detector, the peristaltic pump, and the femoral vein catheter were thus connected in series, to enable the extracorporeal circulation of blood (flow 150 μL/s from femoral artery to femoral vein) and continuous measurement of radioactivity in the blood (Figure 1).\n(§2) The labelled compounds were administrated two different ways: (i) intravenous bolus infusion (ca. 37 MBq in 300 μL of saline solution was injected through the femoral vein catheter) and (ii) oral bolus administration. For oral administration, animals were fasted for 5 h. The radioactive dose (ca. 74 MBq in 300 μL of saline solution) was administered using flexible 20-gauge disposable flexible PTFE feeding needles (Fine Science Tools, F.S.T.) and a small animal Laryngoscope (Penn-Century, Model LS-2) for the correct visualization of the oesophagus. The study was conducted under no carrier added (NCA, dose adjusted to 1 μg/Kg) and carrier added (CA, dose adjusted to 5 mg/Kg) conditions. In all cases, data were imported in real time to an excel sheet using PLX-DAX add-on for Microsoft Excel (measured in volts per second).\n(§3) Arterial blood samples (1 per animal) were withdrawn (see Figure 1) from the femoral artery catheter and introduced into a capillary (Microhaematocrit capillaries 75 × 1.55, Nahita). Samples were centrifuged at 11,000× g […] for 10 min and the haematocrit was determined. A second blood sample was withdrawn and the amount of radioactivity of a fixed volume (10 µL) was measured in an automatic gamma counter (2470 Wizard, PerkinElmer) to determine Cb (concentration of radioactivity in blood) and convert data imported with PLX-DAX (Volts per seconds) into Bq/s using a previously determined calibration curve. Values were then expressed as percentage of injected dose per gram of blood (% ID/g). […]"}, "[2]": {"assay": "Pharmacokinetics from metabolite-corrected arterial plasma TACs after intravenous administration", "assay_type": "in vivo, Sprague Dawley Rats", "details": "for MRT / Vd / half-life: Sprague Dawley, rat, arterial plasma; for MRT: read-out: MRT mean residence time (converted); for Vd / half-life: iv; for half-life: read-out: t1/2 terminal half-life", "protocol": "as §1, §2, §3"}, "[3]": {"details": "both groups (1 µg/Kg and 5 mg/Kg) pooled together"}, "[4]": {"details": "1 ug/kg, intravenous, 1 µg/Kg, n = 5"}, "[5]": {"details": "intravenous, both groups (1 µg/Kg and 5 mg/Kg) pooled together"}}, "note": "Read-outs that look alike come from different tables or passages of the source."}
{"smiles": "COc1ccc(SCc2cn(CCN(C)C)nn2)cc1", "note": "[AHK2, 1-[2-(N,N-dimethylamino)ethyl]-4-[(4-methoxyphenyl)thiomethyl]-1H-1,2,3-triazole]", "values": [{"measurement": "increase of FKBP12/RyR interaction (stabilization)", "setting": "FKBP12/RyR interaction", "result": 89, "unit": "%"}, {"measurement": "AUC area under the curve", "setting": "[1]; 1 µg/Kg", "result": "6.68 ± 4.35", "unit": "%IDxs/mL"}, {"measurement": "Cl plasma clearance", "setting": "[1]; 1 µg/Kg", "result": "4.23 ± 3.58", "unit": "mL/s"}, {"measurement": "Vz volume of distribution based on the terminal slope", "setting": "[1]; 1 µg/Kg", "result": "2728.14 ± 1252.35", "unit": "mL"}, {"measurement": "AUC area under the curve", "setting": "[1]; 5 mg/Kg", "result": "13.35 ± 5.08", "unit": "%IDxs/mL"}, {"measurement": "Cl plasma clearance", "setting": "[1]; 5 mg/Kg", "result": "1.57 ± 0.69", "unit": "mL/s"}, {"measurement": "Vz volume of distribution based on the terminal slope", "setting": "[1]; 5 mg/Kg", "result": "1624.28 ± 1299.35", "unit": "mL"}, {"measurement": "MRT", "setting": "[1]; 1 ug/kg", "result": 8.51, "unit": "min"}, {"measurement": "half-life", "setting": "[1]; 1 ug/kg", "result": "9.16 ± 3.78", "unit": "min"}, {"measurement": "MRT", "setting": "[1]; 5 mg/Kg", "result": 9.36, "unit": "min"}, {"measurement": "half-life", "setting": "[1]; 5 mg/Kg", "result": "13 ± 11.1", "unit": "min"}, {"measurement": "MRT", "setting": "[1]; [3]", "result": 9, "unit": "min"}, {"measurement": "half-life", "setting": "[1]; [3]", "result": "11.3 ± 8.44", "unit": "min"}, {"measurement": "AUC area under the curve", "setting": "[1]; [3]", "result": "10.49 ± 5.65", "unit": "%IDxs/mL"}, {"measurement": "Cl plasma clearance", "setting": "[1]; [3]", "result": "2.71 ± 2.55", "unit": "mL/s"}, {"measurement": "Vz volume of distribution based on the terminal slope", "setting": "[1]; [3]", "result": "2097.36 ± 1309.61", "unit": "mL"}, {"measurement": "MRT", "setting": "[2]; [4]", "result": 8.48, "unit": "min"}, {"measurement": "Vd", "setting": "[2]; 1 ug/kg, intravenous, 1 µg/Kg, n = 5, read-out: Vss volume of distribution at the steady state", "result": "1.03 ± 0.695", "unit": "L"}, {"measurement": "Vd", "setting": "[2]; 1 ug/kg, intravenous, 1 µg/Kg, n = 5, read-out: Vz volume of distribution based on the terminal slope", "result": "2 ± 0.43", "unit": "L"}, {"measurement": "half-life", "setting": "[2]; [4]", "result": "11.7 ± 3.22", "unit": "min"}, {"measurement": "Vd", "setting": "[2]; 5 mg/kg, intravenous, 5 mg/Kg, n = 5, read-out: Vss volume of distribution at the steady state", "result": "1.13 ± 0.443", "unit": "L"}, {"measurement": "Vd", "setting": "[2]; 5 mg/kg, intravenous, 5 mg/Kg, n = 5, read-out: Vz volume of distribution based on the terminal slope", "result": "2.34 ± 0.609", "unit": "L"}, {"measurement": "half-life", "setting": "[2]; 5 mg/kg, intravenous, 5 mg/Kg, n = 5", "result": "13.6 ± 3.42", "unit": "min"}, {"measurement": "Vd", "setting": "[2]; both groups (1 µg/Kg and 5 mg/Kg) pooled together, read-out: Vss volume of distribution at the steady state", "result": "1.08 ± 0.809", "unit": "L"}, {"measurement": "Vd", "setting": "[2]; both groups (1 µg/Kg and 5 mg/Kg) pooled together, read-out: Vz volume of distribution based on the terminal slope", "result": "2.17 ± 1.13", "unit": "L"}, {"measurement": "half-life", "setting": "[2]; [3]", "result": "12.6 ± 3.3", "unit": "min"}, {"measurement": "MRT", "setting": "[2]; intravenous, 5 mg/Kg, n = 5", "result": 8.59, "unit": "min"}, {"measurement": "MRT", "setting": "[2]; [5]", "result": 8.53, "unit": "min"}, {"measurement": "AUC area under the curve", "setting": "[2]; intravenous, 1 µg/Kg, n = 5", "result": "53.99 ± 11.04", "unit": "%IDxs/mL"}, {"measurement": "Cl plasma clearance", "setting": "[2]; intravenous, 1 µg/Kg, n = 5", "result": "1.91 ± 0.41", "unit": "mL/s"}, {"measurement": "AUC area under the curve", "setting": "[2]; intravenous, 5 mg/Kg, n = 5", "result": "59.39 ± 19.76", "unit": "%IDxs/mL"}, {"measurement": "Cl plasma clearance", "setting": "[2]; intravenous, 5 mg/Kg, n = 5", "result": "1.87 ± 0.73", "unit": "mL/s"}, {"measurement": "AUC area under the curve", "setting": "[2]; [5]", "result": "56.69 ± 15.36", "unit": "%IDxs/mL"}, {"measurement": "Cl plasma clearance", "setting": "[2]; [5]", "result": "1.89 ± 0.55", "unit": "mL/s"}, {"measurement": "t1/2 terminal half-life", "setting": "[2]; [5]", "result": "12.63 ± 3.29", "unit": "min"}]}
